Reference: US9206128B2 (Constellation Pharmaceuticals, Inc., priority 2011, dated 2015)

Key:
[1] = biological target: EZH2 (Homo sapiens, UniProt Q15910); assay: EZH2 activity inhibition assay (rPRC2, 3H SAM, biotinylated oligonucleosomes, FlashPlate); format: biochemical; settings: rPRC2, 2 nM EZH2, 0.2 μM 3H SAM, top concentration 80 μM
Method: (§1) EZH2 Assay: Assays were carried out by mixing rPRC2 together with biotinylated oligonucleosome substrates in the presence of the radio-labeled enzyme co-factor, S-adenosyl-L-methionine (^3H SAM) (Perkin Elmer) and monitoring the enzymatically mediated transfer of tritiated methyl groups from ^3H SAM to histone lysine residues. The amount of resulting tritiated methyl histone product was measured by first capturing the biotinylated oligonucleosomes in streptavidin (SAV) coated FlashPlates (Perkin Elmer), followed by a wash step to remove un-reacted ^3H SAM, and then counting on a TopCount NXT 384 well plate scintillation counter (Perkin Elmer).
A 12.5 μL volume of the HMT enzyme, H3K27me3 peptide and oligonucleosome substrate in assay buffer was added to each well of the assay plate using a Multidrop Combi (ThermoFisher). Compounds were pre-incubated with the enzyme for 20 min, followed by initiation of the methyltransferase reaction by addition of 12.5 μL of 3H SAM in assay buffer (final volume=25 μL). […] Stopped reactions were transferred to SAV coated Flashplates (Perkin Elmer), incubated for 120 min, washed with a plate washer, and then read on the TopCount NXT (1.0 min/well) to measure the amount of methyl histone product formed during the reaction.

[2] = biological target: Y641N EZH2 (Homo sapiens, UniProt Q15910, Y641N); assay: Y641N EZH2 activity inhibition assay (as EZH2 assay, reconstituted H3K27Me2 oligonucleosomes as substrate); format: biochemical; settings: Y641N EZH2 mutant enzyme
Sequence of Y641N EZH2 (Q15910 whole entry Y641N): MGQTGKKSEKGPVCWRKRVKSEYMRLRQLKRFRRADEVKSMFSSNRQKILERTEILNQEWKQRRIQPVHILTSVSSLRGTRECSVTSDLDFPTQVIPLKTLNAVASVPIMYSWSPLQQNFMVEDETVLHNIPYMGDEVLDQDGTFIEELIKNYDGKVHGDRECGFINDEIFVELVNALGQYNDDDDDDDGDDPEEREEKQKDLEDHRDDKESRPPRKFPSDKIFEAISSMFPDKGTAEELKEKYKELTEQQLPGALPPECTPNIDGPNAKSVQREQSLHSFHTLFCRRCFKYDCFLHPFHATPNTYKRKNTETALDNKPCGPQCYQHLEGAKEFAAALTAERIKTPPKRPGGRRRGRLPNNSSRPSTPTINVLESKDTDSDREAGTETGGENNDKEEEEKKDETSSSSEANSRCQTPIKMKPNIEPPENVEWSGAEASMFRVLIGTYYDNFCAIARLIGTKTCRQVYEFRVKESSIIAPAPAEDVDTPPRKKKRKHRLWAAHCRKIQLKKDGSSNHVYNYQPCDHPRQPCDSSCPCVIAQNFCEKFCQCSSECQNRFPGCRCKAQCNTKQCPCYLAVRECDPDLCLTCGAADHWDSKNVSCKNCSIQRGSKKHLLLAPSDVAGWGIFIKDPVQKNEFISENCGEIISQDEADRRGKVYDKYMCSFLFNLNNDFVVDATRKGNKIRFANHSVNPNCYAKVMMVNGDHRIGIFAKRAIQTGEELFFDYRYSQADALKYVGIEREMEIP
Sequence of Y641N EZH2 (O75530 whole entry partner): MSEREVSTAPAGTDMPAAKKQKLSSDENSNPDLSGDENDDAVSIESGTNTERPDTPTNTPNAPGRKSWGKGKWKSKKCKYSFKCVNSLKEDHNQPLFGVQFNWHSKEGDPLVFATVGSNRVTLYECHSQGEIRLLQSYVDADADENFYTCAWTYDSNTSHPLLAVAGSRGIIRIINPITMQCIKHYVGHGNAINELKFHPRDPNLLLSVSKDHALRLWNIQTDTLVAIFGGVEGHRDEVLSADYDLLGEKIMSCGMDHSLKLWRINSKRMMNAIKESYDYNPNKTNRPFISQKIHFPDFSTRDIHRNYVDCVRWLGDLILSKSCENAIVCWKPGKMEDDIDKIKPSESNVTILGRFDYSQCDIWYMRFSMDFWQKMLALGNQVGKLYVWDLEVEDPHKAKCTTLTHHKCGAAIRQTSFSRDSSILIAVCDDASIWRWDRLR
Sequence of Y641N EZH2 (Q15022 whole entry partner): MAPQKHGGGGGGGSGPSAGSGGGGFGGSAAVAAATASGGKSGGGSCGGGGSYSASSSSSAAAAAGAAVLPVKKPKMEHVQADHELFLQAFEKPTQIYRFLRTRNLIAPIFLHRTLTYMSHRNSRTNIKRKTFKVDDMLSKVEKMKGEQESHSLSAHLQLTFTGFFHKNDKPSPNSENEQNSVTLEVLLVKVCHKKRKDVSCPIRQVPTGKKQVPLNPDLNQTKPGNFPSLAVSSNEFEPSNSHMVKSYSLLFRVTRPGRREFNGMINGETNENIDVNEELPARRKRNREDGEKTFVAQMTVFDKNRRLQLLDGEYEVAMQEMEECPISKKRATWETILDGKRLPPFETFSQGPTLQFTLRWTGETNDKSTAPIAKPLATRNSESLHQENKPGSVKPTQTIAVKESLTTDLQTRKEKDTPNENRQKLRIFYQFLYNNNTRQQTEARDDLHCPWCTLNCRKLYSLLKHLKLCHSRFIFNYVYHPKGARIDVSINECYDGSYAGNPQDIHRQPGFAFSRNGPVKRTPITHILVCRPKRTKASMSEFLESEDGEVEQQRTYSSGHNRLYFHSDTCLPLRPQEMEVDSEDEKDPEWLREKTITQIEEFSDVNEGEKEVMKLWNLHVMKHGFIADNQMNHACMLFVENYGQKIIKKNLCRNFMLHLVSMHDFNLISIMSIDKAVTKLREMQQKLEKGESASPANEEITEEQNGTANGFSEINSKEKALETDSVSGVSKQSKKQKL
Method: as §1, with “Elmer). The final assay conditions for EZH2 were as follows: 50 mM Tris Buffer pH 8.5, 1 mM DTT, 69 μM Brij-35 detergent, 5.0 mM MgCl2, 0.1 mg/mL BSA, 0.2 μM ^3H SAM, 0.2 μM biotinylated oligonucleosomes, 3.6 μM H3K27me3 peptide and 2 nM EZH2.” for “Elmer).”
A 12.5 μL volume of the HMT enzyme, H3K27me3 peptide and oligonucleosome substrate in assay buffer was added to each well of the assay plate using a Multidrop Combi (ThermoFisher). Compounds were pre-incubated with the enzyme for 20 min, followed by initiation of the methyltransferase reaction by addition of 12.5 μL of 3H SAM in assay buffer (final volume=25 μL). The final concentrations of compounds ranged from a top default concentration of 80 μM down to 0.16 μM in ten 2-fold dilution steps. Reactions were carried out for 60 minutes and quenched with 20 μL per well of 1.96 mM SAH, 50 mM Tris PH 8.5, 200 mM EDTA. Stopped reactions were transferred to SAV coated Flashplates (Perkin Elmer), incubated for 120 min, washed with a plate washer, and then read on the TopCount NXT (1.0 min/well) to measure the amount of methyl histone product formed during the reaction.

Sequence of EZH2 (Q15910 whole entry): as the sequence (Q15910 whole entry Y641N) above, with N641Y counted along it
Sequence of EZH2 (O75530 whole entry partner): as the sequence (O75530 whole entry partner) above
Sequence of EZH2 (Q15022 whole entry partner): as the sequence (Q15022 whole entry partner) above

Row | IC50 [1] [µM] | IC50 [2] [µM] | SMILES
1 | > 80 | > 80 | Cc1cc(C)c(CNC(=O)c2ccc(C(C)Oc3ccccc3)c(F)c2)c(=O)[nH]1 (single isomer, unassigned) [Compound I-160, (R)— or (S)-3-fluoro-N-((2-hydroxy-4,6-dimethylpyridin-3-yl)methyl)-4-(1-phenoxyethyl)benzamide]
2 | < 1 | < 1 | Cc1cc(C)c(CNC(=O)c2ccc(C(C)Oc3ccccc3)c(F)c2)c(=O)[nH]1 (single isomer, unassigned) [Compound I-161, (S)— or (R)-3-fluoro-N-((2-hydroxy-4,6-dimethylpyridin-3-yl)methyl)-4-(1-phenoxyethyl)benzamide]
3 | 10 to 50 | > 80 | Cc1cc(C)c(CNC(=O)c2ccc(C(C)Oc3ccccc3)cc2)c(=O)[nH]1 (stereo in doubt) [Compound I-30, (S)—N-((2-hydroxy-4,6-dimethylpyridin-3-yl)methyl)-4-(1-phenoxyethyl)benzamide]
4 | 10 to 50 | > 50 | Cc1cc(C)c(CNC(=O)c2ccc(C(O)c3ccccc3)cc2)c(=O)[nH]1 (centres unmarked) [Compound I-24]
5 | 1 to 10 | 10 to 50 | Cc1cc(C)c(CNC(=O)c2ccc(C(C)(O)c3ccccc3)cc2)c(=O)[nH]1 (centres unmarked) [Compound I-25]
6 | 10 to 50 | > 80 | Cc1cc(C)c(CNC(=O)c2ccc(S(=O)(=O)c3ccccc3)cc2)c(=O)[nH]1 [Compound I-26, N-((2-hydroxy-4,6-dimethylpyridin-3-yl)methyl)-4-(phenylsulfonyl)benzamide]
7 | < 1 | 1 to 10 | Cc1cc(C)c(CNC(=O)c2ccc(COc3ccccc3)cc2C)c(=O)[nH]1 [Compound I-27, N-((2-hydroxy-4,6-dimethylpyridin-3-yl)methyl)-2-methyl-4-(phenoxymethyl)benzamide]
8 | 1 to 10 | 10 to 50 | Cc1cc(C)c(CNC(=O)c2ccc(Oc3ccccc3)cc2C)c(=O)[nH]1 [Compound I-28, N-((2-hydroxy-4,6-dimethylpyridin-3-yl)methyl)-2-methyl-4-phenoxybenzamide]
9 | 10 to 50 | > 80 | Cc1cc(C)c(CNC(=O)c2ccc([S+]([O-])c3ccccc3)cc2)c(=O)[nH]1 (centres unmarked) [Compound I-29, N-((2-hydroxy-4,6-dimethylpyridin-3-yl)methyl)-4-(phenylsulfinyl)benzamide]
10 | < 1 | < 1 | Cc1cc(C)c(CNC(=O)c2ccc([C@H](C)Oc3ccccc3)cc2)c(O)n1 [Compound I-31, (S)—N-((2-hydroxy-4,6-dimethylpyridin-3-yl)methyl)-4-(1-phenoxyethyl)benzamide]
11 | < 1 | 1 to 10 | COc1cc(Oc2ccccc2)ccc1C(=O)NCc1c(C)cc(C)[nH]c1=O [Compound I-32, N-((2-hydroxy-4,6-dimethylpyridin-3-yl)methyl)-2-methoxy-4-phenoxybenzamide]
12 | < 1 | 1 to 10 | Cc1cc(C)c(CNC(=O)c2ccc(Cc3ccccc3)cc2)c(=O)[nH]1 [Compound I-34, 4-benzyl-N-((2-hydroxy-4,6-dimethylpyridin-3-yl)methyl)benzamide]
13 | < 1 | 1 to 10 | Cc1ccc(OC(C)c2ccc(C(=O)NCc3c(C)cc(C)[nH]c3=O)cc2)cc1 (centres unmarked) [Compound I-35, N-((2-hydroxy-4,6-dimethylpyridin-3-yl)methyl)-4-(1-(p-tolyloxy)ethyl)benzamide]

Further lines, the molecule ahead of its results:

Row | SMILES | IC50 [1] [µM] | IC50 [2] [µM]
14 | Cc1cc(C)c(CNC(=O)c2ccc(Oc3ccccc3C#N)cc2)c(=O)[nH]1 [Compound I-2, 4-(2-cyanophenoxy)-N-((2-hydroxy-4,6-dimethylpyridin-3-yl)methyl)benzamide] | 1 to 10 | 10 to 50
15 | Cc1cc(C)c(CNC(=O)c2ccc(COc3cccc(-c4ccc(N)nc4)c3)cc2)c(=O)[nH]1 [Compound I-3, 4-((3-(6-aminopyridin-3-yl)phenoxy)methyl)-N-((2-hydroxy-4,6-dimethylpyridin-3-yl)methyl)benzamide] | < 1 | 1 to 10
16 | CCc1cccc(Oc2ccc(C(=O)NCc3c(C)cc(C)[nH]c3=O)cc2C)c1C#N [Compound I-4, 4-(2-cyano-3-ethylphenoxy)-N-((2-hydroxy-4,6-dimethylpyridin-3-yl)methyl)-3-methylbenzamide] | 1 to 10 | 
17 | Cc1cc(C)c(CNC(=O)c2ccc(Oc3cccc(-c4cn[nH]c4)c3C#N)c(Cl)c2)c(=O)[nH]1 [Compound I-5, 3-chloro-4-(2-cyano-3-(1H-pyrazol-4-yl)phenoxy)-N-((2-hydroxy-4,6-dimethylpyridin-3-yl)methyl)benzamide] | 1 to 10 | 
18 | Cc1cc(C)c(CNC(=O)c2ccc(Oc3cccc(-c4ccncc4)c3C#N)c(Cl)c2)c(=O)[nH]1 [Compound I-6, 3-chloro-4-(2-cyano-3-(pyridin-4-yl)phenoxy)-N-((2-hydroxy-4,6-dimethylpyridin-3-yl)methyl)benzamide] | 1 to 10 | 
19 | Cc1cc(C)c(CNC(=O)c2ccc(Oc3ccccc3-c3ccncc3)c(Cl)c2)c(=O)[nH]1 [Compound I-7, 3-chloro-N-((2-hydroxy-4,6-dimethylpyridin-3-yl)methyl)-4-(2-(pyridin-4-yl)phenoxy)benzamide] | 1 to 10 | 
20 | Cc1cc(C)c(CNC(=O)c2ccc(Oc3ccccc3C#N)c(Cl)c2)c(=O)[nH]1 [Compound I-10, 3-chloro-4-(2-cyanophenoxy)-N-((2-hydroxy-4,6-dimethylpyridin-3-yl)methyl)benzamide] | 1 to 10 | 1 to 10
21 | Cc1cc(C)c(CNC(=O)c2ccc(COc3ccccc3)cc2)c(=O)[nH]1 [Compound I-11, N-((2-hydroxy-4,6-dimethylpyridin-3-yl)methyl)-4-(phenoxymethyl)benzamide] | 1 to 10 | 1 to 10
22 | Cc1cc(C)c(CNC(=O)c2ccc(OCc3ccccc3)cc2)c(=O)[nH]1 [Compound I-12, 4-(benzyloxy)-N-((2-hydroxy-4,6-dimethylpyridin-3-yl)methyl)benzamide] | 1 to 10 | 10 to 50
23 | Cc1cc(C)c(CNC(=O)c2ccc(N(C)c3ccccc3)cc2)c(=O)[nH]1 [Compound I-13] | < 1 | 1 to 10
24 | Cc1cc(C)c(CNC(=O)c2ccc(Oc3ncccn3)cc2)c(=O)[nH]1 [Compound I-14] | > 50 | > 80
25 | COc1ccnc(Oc2ccc(C(=O)NCc3c(C)cc(C)[nH]c3=O)cc2)n1 [Compound I-15] | > 50 | > 80
26 | Cc1cc(C)c(CNC(=O)c2ccc(Oc3ccccc3)nc2)c(=O)[nH]1 [Compound I-16] | 1 to 10 | 10 to 50
27 | Cc1cc(C)c(CN(C)C(=O)c2ccc(Oc3cccc(-c4ccncn4)c3C#N)c(Cl)c2)c(O)n1 [Compound I-17, 3-chloro-4-(2-cyano-3-(pyrimidin-4-yl)phenoxy)-N-((2-hydroxy-4,6-dimethylpyridin-3-yl)methyl)-N-methylbenzamide] | 1 to 10 | > 50
28 | Cc1cc(C)c(CNC(=O)c2ccc(Nc3ccccc3)nc2)c(=O)[nH]1 [Compound I-18] | 10 to 50 | > 80
29 | Cc1cc(C)c(CNC(=O)c2ccc(Nc3ccccc3)cc2)c(=O)[nH]1 [Compound I-19] | 1 to 10 | 10 to 50
30 | Cc1cc(C)c(CN(C)C(=O)c2ccc(Oc3ccccc3)cc2)c(O)n1 [Compound I-20, N-((2-hydroxy-4,6-dimethylpyridin-3-yl)methyl)-N-methyl-4-phenoxybenzamide] | 1 to 10 | > 50
31 | Cc1cc(C)c(CNC(=O)c2ccc(Oc3ccccc3)cn2)c(=O)[nH]1 [Compound I-21, N-((2-hydroxy-4,6-dimethylpyridin-3-yl)methyl)-5-phenoxypicolinamide] | 1 to 10 | 10 to 50
32 | Cc1cc(C)c(CNC(=O)c2ccc(Oc3ccccc3)cc2Cl)c(=O)[nH]1 [Compound I-22] | < 1 | 1 to 10
33 | Cc1cc(C)c(CNC(=O)c2ccc(C(C)Oc3ccccc3)cc2)c(=O)[nH]1 (centres unmarked) [Compound I-23, N-((2-hydroxy-4,6-dimethylpyridin-3-yl)methyl)-4-(1-phenoxyethyl)benzamide] | < 1 | < 1
